Assay: Stability of M4N formulations at room temperature (time to crystallized precipitation)
Format: physicochemical
Method: A 10 mL solution of M4N at a concentration of about 10 mg/mL in 40% BP-β-CD was made as follows. About 10 mL of the 40% HP-β-CD solution were added to a glass beaker containing a stir bar. The beaker was placed on a magnetic plate and the stir bar was set to stir at medium speed. About […] of M4N were slowly added to the 40% HP-β-CD in the center of the beaker with the aid of a spatula. The M4N/40% HP-β-CD mixture was stirred for 2 hr or until all M4N was uniformly suspended without any clumps being present. The M4N/40% HP-β-CD mixture was optionally heated at 80° C. for about 30 min. (or longer if a larger volume of solution was desired, for example, 1 hr at 80° C. for 100 mL of the M4N/HP-β-CD mixture), or longer as needed to ensure complete dissolution of M4N. […] The final M4N/40% HP-β-CD solution was stored at room temperature and was kept protected from light. This process may be scaled up or down to obtain the requisite volume or concentration of M4N. Formulations containing M4N in other cyclodextrin solutions may be similarly made, such as, for example, by substituting HP-β-CD in the process described above with other cyclodextrins.
A 100 mL solution of M4N at a concentration of about 25 mg/mL in PEG 300 was made as follows. About 100 mL of PEG 300 were added to a glass beaker containing a stir bar. The beaker was placed on a magnetic plate and the stir bar was set to stir at medium speed. About 2.5 g of M4N were slowly added to the PEG 300 in the center of the beaker with the aid of a spatula to prevent M4N from sticking to the beaker wall. The M4N/PEG 300 mixture was stirred for 24 hr or until all M4N had dissolved or was uniformly suspended without any clumps being present. The M4N/PEG 300 mixture was optionally heated at about 60° C. for about 30 min. (or longer if a larger volume of solution was desired, for example, 1 hr at 60° C. for 500 mL of the M4N/PEG 300 mixture), or longer as needed to ensure complete dissolution of M4N. […] If crystals formed, the M4N/PEG 300 solution could be heated again at 60° C. for about 1 hr, with stirring, on a hot magnetic plate until all M4N was dissolved back in solution. The final M4N/PEG 300 solution was stored at room temperature and was kept protected from light. This process may be scaled up or down to obtain the requisite volume or concentration of M4N. Formulations containing M4N in other PEGs may be similarly made, such as, for example, by substituting PEG 300 in the process described above with PEG 400 or PEG 400 monolaurate.
Formulations containing M4N in other water-insoluble lipids combined with non-ionic, ionic or amphipathic surfactants or water-soluble organic solvents may be similarly made, such as, for example, by substituting sesame oil in the process described above with corn oil, olive oil, soybean oil, peppermint oil, or mineral oil and substituting Tween® 20 with Tween® 80, TPGS, lecithin, PEG 300, PEG 400, PEG 400 monolaurate, glycerol, PVP, PG, or other solubilizing agents, and combinations thereof. Stability in reference to the clear liquid solutions herein refers to the time it takes to form crystallized precipitation in solution. A stable solution is one that is clear and free of particulates for an extended period of time.

COc1ccc(C[C@@H](C)[C@@H](C)Cc2ccc(OC)c(OC)c2)cc1OC [Formulation M4N, meso-1,4-bis(3,4-dimethoxyphenyl)-2,3-dimethylbutane]
Stability at Room Temperature (0.3% (v/v) Piperin, 49.8% (v/v) PEG 400, 49.8% (v/v) Tween ® 20, M4N 60 mg/mL, suspension): >9 days | Stability at Room Temperature (0.4% (v/v) Cinnamadehyde, 49.8%(v/v) PEG 400, 49.8% (v/v) Tween ® 20, M4N 60 mg/mL): >4 days | Stability at Room Temperature (0.4% (v/v) Cinnamaldehyde, 4.6% (v/v) Peppermint Oil, 47.5% (v/v) PEG 400, 47.5% (v/v) Tween ® 20, M4N 60 mg/mL): >2 days | Stability at Room Temperature (0.4% (v/v) Eugenol, 49.8% (v/v) Tween ® 20, 49.8% (v/v) PEG 400, M4N 60 mg/mL): >2 days | Stability at Room Temperature (3% (w/v)Glycerol Monostearate, 48.5% (v/v) PEG 400, 48.5% (v/v) Tween ® 20, M4N 60 mg/mL): >1 days | Stability at Room Temperature (5% (v/v) Peppermint Oil, 47.5% (v/v) Tween ® 20, 47.5% (v/v) PEG 400, M4N 60 mg/mL): >2 days | Stability at Room Temperature (10% TPGS (w/v), 50% PEG 400 (v/v), M4N 50 mg/ml, suspension): >7 days | Stability at Room Temperature (25%(w/v) Lecithin, 37.5% (v/v) PEG 400, 37.5% (v/v) Tween ® 20, M4N 60 mg/mL): >14 days | Stability at Room Temperature (47.5% (v/v) Tween ® 20, 47.5% (v/v) PEG 400, 2.5% (w/v) Beeswax 2.5% (w/v) PEG 3350, M4N 60 mg/mL): >4 days | Stability at Room Temperature (47.5% Tween ® 20 (v/v), 47.5% PEG 400 (v/v), 5% Beeswax (w/v), M4N 200 mg/g, waxy solid): >3 days | Stability at Room Temperature (50% Tween ® 20 (v/v), 50% PEG 400 (v/v), M4N 30 mg/ml): >3 days | Stability at Room Temperature (50% Tween ® 20 (v/v), 50% PEG 400 (v/v), M4N 40 mg/ml): >3 days | Stability at Room Temperature (50% Tween ® 20 (v/v), 50% PEG 400 (v/v), M4N 50 mg/ml): >3 days | Stability at Room Temperature (50% Tween ® 20 (v/v), 50% PEG 400 (v/v), M4N 60 mg/ml): >3 days | Stability at Room Temperature (50.3% (v/v) Tween ® 20, 44.6% (v/v) PEG 400, 2.4% (w/v) Beeswax, 2.4% (w/v) PEG 3350, 0.3% (w/v) Naringenin, M4N 60 mg/mL): >4 days | Stability at Room Temperature (Glycerol Monoleate 100% (w/v), M4N 0.10 mg/ml, remains in suspension, can be mixed back together): for up to 10 days | Stability at Room Temperature (Glycerol Monoleate 100% (w/v), M4N 0.25 mg/ml, remains in suspension, can be mixed back together): for up to 10 days | Stability at Room Temperature (Glycerol Monoleate 100% (w/v), M4N 1.00 mg/ml, remains in suspension, can be mixed back together): for up to 10 days | Stability at Room Temperature (Glycerol Monoleate 100% (w/v), M4N 5.0 mg/ml, remains in suspension, can be mixed back together): for up to 10 days | Stability at Room Temperature (Glycerol Monoleate 100% (w/v), M4N 10.0 mg/ml, remains in suspension, can be mixed back together): for up to 10 days | Stability at Room Temperature (Glycerol Monoleate 100% (w/v), M4N 12.0 mg/ml, remains in suspension, can be mixed back together): for up to 10 days | Stability at Room Temperature (Glycerol Monoleate 100% (w/v), M4N 15.0 mg/ml, remains in suspension, can be mixed back together): for up to 10 days | Stability at Room Temperature (Glycerol Monoleate 100% (w/v), M4N 17.5 mg/ml, remains in suspension, can be mixed back together): for up to 10 days | Stability at Room Temperature (Glycerol Monoleate 100% (w/v), M4N 20.0 mg/ml, remains in suspension, can be mixed back together): for up to 10 days | Stability at Room Temperature (Glycerol Monoleate 100% (w/v), M4N 25.0 mg/ml, remains in suspension, can be mixed back together): for up to 10 days | Stability at Room Temperature (Glycerol Monoleate 100% (w/v), M4N 30.0 mg/ml, remains in suspension, can be mixed back together): for up to 10 days | Stability at Room Temperature (Glycerol Monoleate 100% (w/v), M4N 40.0 mg/ml, remains in suspension, can be mixed back together): for up to 10 days | Stability at Room Temperature (Glycerol Monoleate 100% (w/v), M4N 50.0 mg/ml, remains in suspension, can be mixed back together): for up to 10 days | Stability at Room Temperature (Glycerol Monoleate 100% (w/v), M4N 60.0 mg/ml, remains in suspension, can be mixed back together): for up to 10 days | Stability at Room Temperature (Glycerol Monoleate 100% (w/v), M4N 65.0 mg/ml, remains in suspension, can be mixed back together): for up to 10 days | Stability at Room Temperature (Glycerol Monoleate 100% (w/v), M4N 70.0 mg/ml, remains in suspension, can be mixed back together): for up to 10 days | Stability at Room Temperature (Glycerol Monoleate 100% (w/v), M4N 80.0 mg/ml, remains in suspension, can be mixed back together): for up to 10 days | Stability at Room Temperature (Glycerol Monoleate 100% (w/v), M4N 100.0 mg/ml, remains in suspension, can be mixed back together): for up to 10 days | Stability at Room Temperature (Glycerol Monoleate 100% (w/v), M4N 200.0 mg/ml, remains in suspension, can be mixed back together): for up to 10 days | Stability at Room Temperature (Glycerol Monoleate 100% (w/v), M4N 300.0 mg/ml, remains in suspension, can be mixed back together): for up to 10 days | Stability at Room Temperature (Labrafil ® 100%, M4N 60 mg/mL): >4 days | Stability at Room Temperature (Labrasol ® 100%, M4N 50 mg/mL): >4 days | Stability at Room Temperature (Labrasol ® 100%, M4N 60 mg/mL): >4 days | Stability at Room Temperature (Labrasol ® 100%, M4N 70 mg/mL): >4 days | Stability at Room Temperature (Labrasol ® 100%, M4N 80 mg/mL): >4 days | Stability at Room Temperature (M4N 1 mg/mL in 20% HP-β-CD): >7 days | Stability at Room Temperature (M4N 1 mg/mL in 30% HP-β-CD): >7 days | Stability at Room Temperature (M4N 1 mg/mL in 50% HP-β-CD): >7 days | Stability at Room Temperature (M4N 1 mg/mL in 50% HP-β-CD, 1.25% PVP (w/v)): <3 days | Stability Time at Room Temperature (M4N 1 mg/mL in Peppermint Oil): >3 days | stable at room temperature (M4N 1 mg/mL in Tween® 20): more than 7 days | stable at room temperature (M4N 1 mg/mL in Tween® 80): more than 3 days

From US20090022803A1, “Oral Formulations For Delivery of Catecholic Butanes Including Ndga Compounds” (priority 2005, published 2009)
